According to ChEMBL document CHEMBL1201862, “PubChem BioAssay data set” (2004):
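48-hour exposure; five concentrations; linearly interpolated endpoints. The concentration for 50% growth inhibition is given as GI50.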 Activity calls are given as the source filed them. Cut-off read from the data, not from the text of the source: active = GI50 up to about 1.1 µM and inactive = higher.

How the values were obtained:
Assay in all cases: NCI anticancer screen, dose series, 48 h
SK-MEL-2 = test system: SK-MEL-2
OVCAR-5 = test system: OVCAR-5
SR = test system: SR
NCI-H460 = test system: NCI-H460
PC-3 = test system: PC-3
SF-268 = test system: SF-268
HT-29 = test system: HT-29
LOX IMVI = test system: LOX IMVI
SK-OV-3 = test system: SK-OV-3
M14 = test system: M14
SF-295 = test system: SF-295
UO-31 = test system: UO-31
BT-549 = test system: BT-549
TK-10 = test system: TK-10
UACC-62 = test system: UACC-62
RXF 393 = test system: RXF 393
RPMI-8226 = test system: RPMI-8226
A549 = test system: A549
SK-MEL-28 = test system: SK-MEL-28
SNB-19 = test system: SNB-19
NCI-H226 = test system: NCI-H226
SN12C = test system: SN12C
Hs-578T = test system: Hs-578T
IGROV-1 = test system: IGROV-1
786-0 = test system: 786-0
HOP-92 = test system: HOP-92
SK-MEL-5 = test system: SK-MEL-5
COLO 205 = test system: COLO 205
MOLT-4 = test system: MOLT-4
HCT-116 = test system: HCT-116
DU-145 = test system: DU-145
HOP-62 = test system: HOP-62
MDA-N = test system: MDA-N
OVCAR-3 = test system: OVCAR-3
EKVX = test system: EKVX
MCF7 = test system: MCF7
MDA-MB-231 = test system: MDA-MB-231
HCT-15 = test system: HCT-15
OVCAR-8 = test system: OVCAR-8
OVCAR-4 = test system: OVCAR-4
UACC-257 = test system: UACC-257
SNB-75 = test system: SNB-75
SW-620 = test system: SW-620
MDA-MB-435 = test system: MDA-MB-435
ACHN = test system: ACHN
NCI-H522 = test system: NCI-H522
Malme-3M = test system: Malme-3M
T47D = test system: T47D
NCI-H23 = test system: NCI-H23
NCI/ADR-RES = test system: NCI/ADR-RES
U-251 = test system: U-251
CAKI-1 = test system: CAKI-1
KM12 = test system: KM12
SF-539 = test system: SF-539
CCRF-CEM = test system: CCRF-CEM
HCC 2998 = test system: HCC 2998
HL-60 = test system: HL-60

CC1OC2OC3C(OCC(O)C3O)OC(=O)[C@]34CCC(C)(C)CC3C3=CCC5[C@@]6(C)C[C@H](O)[C@H](OC7OC(CO)C(O)C(O)C7OC7OC(COC(=O)CC(C)(O)CC(=O)OC1C(O)C2O)C(O)C(O)C7O)[C@@](C)(CO)C6CC[C@@]5(C)[C@]3(C)CC4 (stereo not given in full) was tested, and the GI50 (SK-MEL-2) was 1590 nM (inactive), the GI50 (OVCAR-5) was 1610 nM (inactive) and the GI50 (SR) was 1600 nM (inactive). For the same compound, the GI50 (NCI-H460) was 1800 nM (inactive), the GI50 (PC-3) was 1380 nM (inactive) and the GI50 (SF-268) was 1540 nM (inactive). For the same compound, the GI50 (HT-29) was 1690 nM (inactive), the GI50 (LOX IMVI) was 1610 nM (inactive) and the GI50 (SK-OV-3) was 1560 nM (inactive). The GI50 (M14) was 1430 nM (inactive), the GI50 (SF-295) was 1780 nM (inactive) and the GI50 (UO-31) was 1220 nM (inactive). The GI50 (BT-549) was 1500 nM (inactive), the GI50 (TK-10) was 1610 nM (inactive) and the GI50 (CAKI-1) was 1450 nM (inactive). The GI50 (UACC-62) was 1560 nM (inactive), the GI50 (RPMI-8226) was 1660 nM (inactive) and the GI50 (KM12) was 1480 nM (inactive). For the same compound, the GI50 (A549) was 1320 nM (inactive), the GI50 (SK-MEL-28) was 1500 nM (inactive) and the GI50 (SNB-19) was 1680 nM (inactive). For the same compound, the GI50 (NCI-H226) was 2480 nM (inactive), the GI50 (SN12C) was 1960 nM (inactive) and the GI50 (Hs-578T) was 1790 nM (inactive). The GI50 (IGROV-1) was 1240 nM (inactive), the GI50 (786-0) was 1210 nM (inactive) and the GI50 (HOP-92) was 1540 nM (inactive). The GI50 (SK-MEL-5) was 1210 nM (inactive), the GI50 (COLO 205) was 1520 nM (inactive) and the GI50 (MOLT-4) was 1320 nM (inactive). The GI50 (HCT-116) was 1630 nM (inactive), the GI50 (DU-145) was 1750 nM (inactive) and the GI50 (HOP-62) was 1440 nM (inactive). The GI50 (MDA-N) was 1520 nM (inactive), the GI50 (OVCAR-3) was 1530 nM (inactive) and the GI50 (SF-539) was 2560 nM (inactive). For the same compound, the GI50 (MCF7) was 4460 nM (inactive), the GI50 (MDA-MB-231) was 1560 nM (inactive) and the GI50 (HCT-15) was 1530 nM. The GI50 (OVCAR-8) was 1650 nM (inactive), the GI50 (OVCAR-4) was 1510 nM (inactive) and the GI50 (UACC-257) was 1430 nM (inactive). For the same compound, the GI50 (SNB-75) was 1470 nM (inactive), the GI50 (SW-620) was 1160 nM (inactive) and the GI50 (MDA-MB-435) was 1570 nM (inactive). The GI50 (ACHN) was 1320 nM (inactive), the GI50 (NCI-H522) was 1640 nM (inactive) and the GI50 (CCRF-CEM) was 1510 nM (inactive). For the same compound, the GI50 (HCC 2998) was 1320 nM (inactive), the GI50 (T47D) was 2390 nM (inactive) and the GI50 (NCI-H23) was 1640 nM (inactive). For the same compound, the GI50 (HL-60) was 1400 nM (inactive), the GI50 (NCI/ADR-RES) was 3010 nM (inactive) and the GI50 (U-251) was 1570 nM (inactive).
